The values that follow come from patent US4617314A, “Benzofuran- and benzopyran-carboxamide derivatives” (priority 1983, dated 1986).

Assay [1] deals with hypermotility of mice induced by apomorphine. The assay is described as follows: Anti-apomorphine Action (mice): suppression of spontaneous motility. The class given is in vivo, mice (male dd-strain). The conditions noted are these: 60 min before 0.5 mg/kg apomorphine hydrochloride, 50% suppression of spontaneous motility; for ED50: Mus musculus, po; for Anti-apomorphine Action ED50, Mice, Motility: p.o. The text has this:
(§1) Dopamine antagonism was observed by the antagonism to
(1) hypermotility of mice, and
(§2) induced by the administration of apomorphine to the animals which drug acts on dopamine. The response of (1) is considered to be due to the action of dopamine on the mesolimbic system whereas the response of (2) is regarded mainly as the action of dopamine on the extrapyramidal system. As a consequence, a drug having high selectivity to the antagonism to the response of (1) is deemed to be more useful with less extrapyramidal side effects.
Groups of 5 male dd-strain mice were used. Test compounds were orally administered and 60 minutes thereafter, 0.5 mg/kg of apomorphine hydrochloride was intracutaneously administered. Immediately thereafter, spontaneous motility of the mice was measured with the aid of Animex (manufactured by Columbus Company, U.S.A.) for 20 minutes. The procedure was repeated three times with respective groups. The dose of test compounds required for 50% suppression of spontaneous motility of control group was graphically intraporated and determined as ED50 value.

Assay [2] relates to stereotyped behavior of rats induced by apomorphine. The assay is described as follows: Anti-apomorphine Action (rats): suppression of gnawing (stereotyped) behavior. Type of assay: in vivo, rats (female Wistar). The settings on record: Rattus norvegicus, po, 60 min before 1.25 mg/kg i.v. apomorphine hydrochloride; 50% suppression of gnawing behavior; probit.
Source text: as §1
(2) stereotyped behavior of rats
as §2
Groups of 7 female Wistar rats were used. Test compounds were orally administered, 60 minutes thereafter, apomorphine hydrochloride was intravenously administered at a dosage of 1.25 mg/kg. After 5 minutes and 20 minutes, respectively, whether gnawing behavior (stereotyped behavior) appears or not during the period of 5 minutes was observed. The dose of test compounds required for 50% suppression of the appearance was evaluated as ED50 value by probit method.

For assay [3], the system named is rats administered with methamphetamine. In words: Methamphetamine Potentiation Action (lethality increasing effect). The class given is in vivo, rats (male Wistar). The conditions noted are these: 8 rats/group, methamphetamine hydrochloride 5 mg/kg i.p. The procedure:
Activation effect was construed as lethality increasing effect of a test drug on rats which were administered with methamphetamine at a non-lethal dose every week. Accordingly, it is considered that the greater is the number of rats which died at a lower dose in an earlier week, the activation activity is the higher.
Groups of 8 male Wistar rats weighing above […] were used. Test compounds are intraperitoneally administered and 15 minutes thereafter, 5 mg/kg of methamphetamine hydrochloride was intraperitoneally administered. Number of dead rats within one week was counted. In the 2nd to 4th week, experiment was likewise repeated at one week intervals by the administration of test compounds and methamphetamine hydrochloride.

Turning to `CCCCN1CCCC1CNC(=O)c1cc(S(N)(=O)=O)cc2c1OC(C)C2` (centres unmarked) [Compound I, N-(1-butyl-2-pyrrolidinylmethyl)-2-methyl-5-sulfamoyl-2,3-dihydrobenzofuran-7-carboxamide], the ED50 (commonly the midpoint of the dose-response relation) in assay [1] is 30 mg/kg; in assay [2], over 100 mg/kg.

`CC1Cc2cc(S(N)(=O)=O)cc(C(=O)NCC3CCCN3Cc3ccccc3)c2O1` (centres unmarked) [D, N-(1-benzyl-2-pyrrolidinylmethyl)-2-methyl-5-sulfamoyl-2,3-dihydrobenzofuran-7-carboxamide]: the ED50 worked out at 6 mg/kg in assay [1] and 21 mg/kg in assay [2].

With `CCN1CCCC1CNC(=O)c1cc(S(N)(=O)=O)cc2c1OC(C)C2` (centres unmarked) [A, N-(1-ethyl-2-pyrrolidinylmethyl)-2-methyl-5-sulfamoyl-2,3-dihydrobenzofuran-7-carboxamide], the ED50 was 80 mg/kg in assay [1] and over 100 mg/kg in assay [2]. The “Methamphetamine Potentiation Action, Number of Dead Animal, Total Number” value (shortened to “Methamphetamine Potentiation Action”) is listed as 1 in assay [3] (1st Week, 5 mg/kg); 0 in assay [3] (1st Week, 10 mg/kg); 2 in assay [3] (1st Week, 20 mg/kg); 1 in assay [3] (2nd Week, 5 mg/kg); 3 in assay [3] (2nd Week, 10 mg/kg); 5 in assay [3] (2nd Week, 20 mg/kg). Besides, the “Methamphetamine Potentiation Action” value in assay [3] (3rd Week, 5 mg/kg) is given as 1; in assay [3] (3rd Week, 10 mg/kg) it was 4; in assay [3] (3rd Week, 20 mg/kg), 5; in assay [3] (4th Week, 5 mg/kg), 1; in assay [3] (4th Week, 10 mg/kg) it was 4; in assay [3] (4th Week, 20 mg/kg), 7.

For `NS(=O)(=O)c1cc2c(c(C(=O)NCC3CCCN3Cc3ccccc3)c1)OCC2` (centres unmarked) [F, N-(1-benzyl-2-pyrrolidinylmethyl)-5-sulfamoyl-2,3-dihydrobenzofuran-7-carboxamide], the ED50 in assay [1] is 17 mg/kg; in assay [2], over 100 mg/kg. Moreover, the “Methamphetamine Potentiation Action” value in assay [3] (1st Week, 10 mg/kg) is recorded as 0; in assay [3] (1st Week, 25 mg/kg), 0; in assay [3] (1st Week, 50 mg/kg) it was 0; in assay [3] (2nd Week, 10 mg/kg), 0; in assay [3] (2nd Week, 25 mg/kg), 0; in assay [3] (2nd Week, 50 mg/kg), 2. For the same compound, the “Methamphetamine Potentiation Action” value in assay [3] (3rd Week, 10 mg/kg) was 0; in assay [3] (3rd Week, 25 mg/kg), 1; in assay [3] (3rd Week, 50 mg/kg), 3; in assay [3] (4th Week, 10 mg/kg), 1; in assay [3] (4th Week, 25 mg/kg), 2; in assay [3] (4th Week, 50 mg/kg), 6.

`CCN1CCCC1CNC(=O)c1cc(S(=O)(=O)NC)cc2c1OC(C)C2.Cl` (centres unmarked) [J, N-(1-ethyl-2-pyrrolidinylmethyl)-2-methyl-5-methylsulfamoyl-2,3-dihydrobenzofuran-7-carboxamide hydrochloride]: the ED50 in assay [1] is 10 mg/kg; in assay [2], over 100 mg/kg.

Regarding `CCN1CCCC1CNC(=O)c1cc(S(N)(=O)=O)cc2c1OC(C)C2` (single isomer, unassigned) [C, N-(1-ethyl-2-pyrrolidinylmethyl)-2-methyl-5-sulfamoyl-2,3-dihydrobenzofuran-7-carboxamide], the “Anti-apomorphine Action ED50, Mice, Motility” value in assay [1] was 85 mg/kg.

As for `CCN1CCCC1CNC(=O)c1cc(S(N)(=O)=O)cc2c1OC(C)C2` (single isomer, unassigned) [B, N-(1-ethyl-2-pyrrolidinylmethyl)-2-methyl-5-sulfamoyl-2,3-dihydrobenzofuran-7-carboxamide], the “Anti-apomorphine Action ED50, Mice, Motility” value in assay [1] was 23 mg/kg.

Consider `CCN1CCCC1CNC(=O)c1cc(S(N)(=O)=O)cc2c1OCC2.O` (centres unmarked) [L, N-(1-ethyl-2-pyrrolidinylmethyl)-5-sulfamoyl-2,3-dihydrobenzofuran-7-carboxamide monohydrate], for which the “Methamphetamine Potentiation Action” value in assay [3] (1st Week, 25 mg/kg) was found to be 3; in assay [3] (2nd Week, 25 mg/kg), 3; in assay [3] (3rd Week, 25 mg/kg), 7; in assay [3] (4th Week, 25 mg/kg), 8.

With `CCN1CCCC1CNC(=O)c1cc(SC)cc2c1OC(C)C2.Cl` (centres unmarked) [K, N-(1-ethyl-2-pyrrolidinylmethyl)-2-methyl-5-methylthio-2,3-dihydrobenzofuran-7-carboxamide hydrochloride], the 50% effective dose (ED50) in assay [1] was 0.65 mg/kg; in assay [2], 0.2 mg/kg.

Regarding `CC1Cc2cc(S(N)(=O)=O)cc(C(=O)NC3CCN(Cc4ccccc4)C3)c2O1` (centres unmarked) [Compound E, N-(1-benzyl-3-pyrrolidinyl)-2-methyl-5-sulfamoyl-2,3-dihydrobenzofuran-7-carboxamide], the values for the ED50 in assay [1] and in assay [2] were 100 mg/kg and over 100 mg/kg, respectively.

Regarding `CC(C)CN1CCCC1CNC(=O)c1cc(S(N)(=O)=O)cc2c1OCC2` (centres unmarked) [G, N-(1-isobutyl-2-pyrrolidinylmethyl)-5-sulfamoyl-2,3-dihydrobenzofuran-7-carboxamide], the ED50 in assay [1] is 35 mg/kg; in assay [2], over 100 mg/kg.

In the case of `CC(C)CN1CCCC1CNC(=O)c1cc(S(N)(=O)=O)cc2c1OC(C)C2` (centres unmarked) [H, N-(1-isobutyl-2-pyrrolidinylmethyl)-2-methyl-5-sulfamoyl-2,3-dihydrobenzofuran-7-carboxamide], the figures for the ED50 in assay [1] and in assay [2] were 19 mg/kg and 60 mg/kg, respectively. Moreover, the “Methamphetamine Potentiation Action” value in assay [3] (1st Week, 20 mg/kg) was found to be 0; in assay [3] (1st Week, 40 mg/kg), 2; in assay [3] (2nd Week, 20 mg/kg) it was 6; in assay [3] (2nd Week, 40 mg/kg), 4; in assay [3] (3rd Week, 20 mg/kg) it was 6; in assay [3] (3rd Week, 40 mg/kg) it was 7. In addition, the “Methamphetamine Potentiation Action” value in assay [3] (4th Week, 20 mg/kg) was determined as 7; in assay [3] (4th Week, 40 mg/kg), 7.
